Assay results published in patent US20240075064A1, “COMPOSITIONS AND METHODS FOR EXPANSION OF T CELLS AND TUMOR INFILTRATING LYMPHOCYTES” (OBSIDIAN THERAPEUTICS, INC., priority 2021, published 2024).

System: IL15 signaling pathway
Experiment: Phospho-flow cytometry assay of IL15 expression and signaling (pSTAT5, pS6)
Assay type: cell-based, human
Conditions: regulated mbIL15 TILs, ACZ 0.1-100, 18 hours
Experimental: Pre-REP TILs were prepared similarly to the methods of Example 1-3 and 9, and unengineered and mbIL15 TIL generated accordingly as described in Examples 1-3 and 9. Engagement of the IL15 signaling pathway results in phosphorylation of signal transducers downstream, including the transcription factor protein STATS and ribosomal protein S6. […] Next, the regulated mbIL15 TILs were regulated for 18 hours in the presence of a range of concentrations of ACZ including 0.1, 1, 2.5, 5, 10, 25, 100 as well as vehicle control. The regulated mbIL15 TILs were then collected for staining and FACS analysis.
Briefly, cells were stained using antibodies for CD3, CD4, CD8, IL15 and a Live/Dead marker. Then cells were fixed in 2% formaldehyde (BD Cytofix) and permeabilized using a methanol-based buffer (BD Phospho Perm III Buffer) before staining with antibodies specific for phosphorylated STATS (Biolegend) and S6 (Cell Signaling Technology). Cells were acquired on the BD Symphony and analyzed using FlowJo software.
In order to compare different strategies for IL15 expression, TILs were utilized that constitutively express mbIL15 and regulated mbIL15 TILs. Cryopreserved unengineered TILs, constitutive mbIL15 TILs, and regulated mbIL15 TILs, from three human donors were thawed and then rested in ACZ-free media for 24 hours. […] Cells were acquired on the BD Fortessa and analyzed using FlowJo software.

CC(=O)Nc1nnc(S(N)(=O)=O)s1 [ACZ, acetazolamide]
staining intensity of pSTAT5 and pS6: increased with higher concentrations of ACZ
